Square brackets hold non-standard residues; d marks the D form. Peptide text beside a SMILES is read from it. * marks the point of attachment. Methacryloyl = C=C(C)C(=O)*; Ahx = NCCCCCC(=O)O
Experiments:
[1] = target: butyrylcholinesterase (BChE) (Homo sapiens, UniProt P06276); conditions: buffer with BChE, relative to buffer alone
Protocol: The drug release studies were conducted at 37° C. and free drug detection was quantified using an elution gradient profile at 277 nm.
Recombinant human butyrylcholinesterase (BChE) was obtained from R&D systems.

[2] = human serum, 37° C., at 120 h
Protocol: The drug release studies were conducted at 37° C. and free drug detection was quantified using an elution gradient profile at 277 nm. The studies were conducted with deprotected monomers and polymers.
HPLC was used to quantify drug release by detecting free drug as a function of time normalized to amount of drug present during initial incubation. This in turn was standardized to the total available drug in the system as quantified by dissolving a known amount of polymer in 10% aq. H2SO4 for 48 h at 25° C. Using a Cipro standard curve, the total amount of drug in the polymers was validated against compositional values obtained from ^19F NMR. […]
Absorbance Detector, and Agilent ChemStation software for LC system (Palo Alto, Calif.). […]
Both non-serum (mobile phase:deionized water) and serum standards were subsequently treated with 50% acetonitrile (v/v) to promote protein precipitation. […] Non-serum standards were analysed without the need for centrifugation. […]
The drug release from polymer conjugates was carried out in serum at 37° C. at a polymer concentration of 6 mg/mL. […] Quantification of total Cipro in the polymer conjugates was measured by taking 6 mg/mL of polymer and dissolving it in 10% aq. […] The HPLC with a gradient elution profile was used to quantify amount of drug released using the same instrument parameters set forth for drug standards. […]

[3] = target: T1, Human liver cathepsin B (Homo sapiens, UniProt P07858); assay: Cathepsin B cleavage assay; format: biochemical; conditions: for cathepsin B cleavage of FKFL linker and peptide release: RP-HPLC and MS
T1 construct: purchased Enzo Life Sciences; host or cells: human liver
Protocol: Human liver cathepsin B (Enzo Life Sciences) was activated for 15 minutes in a solution of 0.158 mg/mL cathepsin B, 20 mM DTT, and 10 mM EDTA at 37° C. Peptide or polymer was then solubilized in reaction buffer (10 mM phosphate, 1 mM EDTA, pH 6.6, 37° C.) and added to the enzyme solution for a final concentration of 1.28 μg/mL cathepsin B and […] peptide/polymer. […] Cleavage of the polymers was also visualized by SDS-PAGE on 8-16% Tris-Glycine Gels (Bio-Rad). For protein gel analyses, reactions were conducted at 3× concentration and 160 μg of polymer was loaded per well.

[4] = Serum stability of peptide macromonomers and polymers; format: in vitro ADME, human; conditions: 37° C., 0 to 12 hours, MALDI-TOF MS
Protocol: The stability of the peptide (FKFL) linker in the presence of serum proteases was evaluated by incubating the peptide monomers and polymers in human serum and analyzing the degradation products over time. Peptide (40 mM, DMSO) or polymer (4 mM, PBS) was added to human serum to a final peptide/polymer concentration of 400 μM and incubated at 37° C. At various time points, 40 μL aliquots of the mixture were withdraw and 40 μL of acetonitrile was added to precipitate serum proteins and halt protease degradation. Precipitated solutions were centrifuged at 13,000 rpm for 10 min and supernatants were analyzed by MALDI-TOF MS using a Bruker Autoflex II.

[5] = tested on: caspase 3/7; conditions: 10 μM, 72 hours
Protocol: Caspase 3/7 activity was measured using a SensoLyte Homogenous AMC Caspase-3/7 Assay Kit (AnaSpec). SKOV3 cells were plated in a black 96-well plate with a clear bottom at a density of 7,000 per well and then treated with polymer (0-10 μM) for 72 hours. Assay reagents were mixed with cell culture medium as per the manufacturer's instructions, incubated for 24 hours, and fluorescence (ex/em=380 nm/500 nm) was measured using a plate reader. Percent caspase 3/7 activity was calculated relative to untreated cell cultures.

[6] = tested on: SKOV3 human ovarian cancer cells; conditions: 10 μM, 72 hours
Protocol: Induction of apoptosis was measured with a FITC Annexin V/Dead Cell Apoptosis Kit (Invitrogen) as per the manufacturer's instructions. SKOV3s cells were plated in 6-well plates at a density of 120,000 cells per well and treated with 10 μM polymer solutions for 72 hours. After 72 hours, cells were trypsinized, rinsed in PBS, centrifuged, stained with FITC-annexin V, and analyzed on a BD LSRII flow cytometer.

Chain of butyrylcholinesterase (BChE) (P06276 29-602): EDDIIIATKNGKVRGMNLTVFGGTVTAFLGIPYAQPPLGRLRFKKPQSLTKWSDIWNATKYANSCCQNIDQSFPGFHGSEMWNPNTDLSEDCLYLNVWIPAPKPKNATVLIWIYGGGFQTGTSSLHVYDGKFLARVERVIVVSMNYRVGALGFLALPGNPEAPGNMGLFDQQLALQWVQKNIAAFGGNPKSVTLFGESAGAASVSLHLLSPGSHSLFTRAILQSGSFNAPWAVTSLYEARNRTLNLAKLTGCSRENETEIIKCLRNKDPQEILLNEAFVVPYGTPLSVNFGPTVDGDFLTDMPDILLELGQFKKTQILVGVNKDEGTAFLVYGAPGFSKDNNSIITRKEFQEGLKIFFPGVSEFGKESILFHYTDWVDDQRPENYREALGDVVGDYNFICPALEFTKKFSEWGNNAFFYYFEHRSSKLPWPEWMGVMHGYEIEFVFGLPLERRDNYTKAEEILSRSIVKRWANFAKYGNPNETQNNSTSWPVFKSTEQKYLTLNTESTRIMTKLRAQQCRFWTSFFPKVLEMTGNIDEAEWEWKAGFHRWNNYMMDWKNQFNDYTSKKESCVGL

Row | Molecule | effect of added BChE on ester hydrolysis [1] | cathepsin B cleavage of FKFL linker and peptide release [3] | caspase 3/7 activity relative to untreated cells [5] | cells staining positive for annexin V [6] [%] | further results
1 | C=C(C)C(=O)OCCOC(=O)c1cn(C2CC2)c2cc(N3CCN(C(=O)OC(C)(C)C)CC3)c(F)cc2c1=O [HBC, (hydroxyethyl)methacrylate-boc-ciprofloxacin] | increases hydrolysis |  |  |  | drug release [2]: ~50%
2 | C=C(C)C(=O)NCCCCCC(=O)N[C@@H](Cc1ccccc1)C(=O)N[C@@H](CCCCN)C(=O)N[C@@H](Cc1ccccc1)C(=O)N[C@@H](CC(C)C)C(=O)NCCCCCC(=O)N[C@@H](CC(C)C)C(=O)N[C@@H](CCCNC(=N)N)C(=O)N[C@@H](CCSC)C(=O)N[C@@H](CCCNC(=N)N)C(=O)N[C@@H](CCC(=O)O)C(=O)N[C@H](C(=O)N[C@H](C(=O)N[C@@H](CC(=O)O)C(=O)N[C@@H](C)C(=O)N[C@@H](Cc1ccc(O)cc1)C(=O)N[C@@H](CCC(=O)O)C(=O)N[C@@H](CCCNC(=N)N)C(=O)N[C@@H](CCC(N)=O)C(=O)N[C@@H](Cc1ccccc1)C(=O)NCC(=O)N[C@@H](CCC(=O)O)C(=O)N1CCC[C@H]1C(=O)N[C@@H](CC(N)=O)C(=O)N[C@H](C(=O)N[C@@H](Cc1c[nH]c2ccccc12)C(=O)N[C@@H](C)C(N)=O)[C@@H](C)CC)[C@@H](C)CC)[C@@H](C)CC [MaAhxFKFLAhxScrBIM] ({Methacryloyl-Ahx}-FKFL[Ahx]LRMREIIDAYERQFGEPNIWA-NH2) |  |  |  |  | cleavage at the FKFL linker ([3]; by 20 minutes): 100%; stability of the FKFL linker in human serum [4]: intact peptide monomer (3437 Da) was detectable after 12 hours
3 | ciprofloxacin-(phenol)methacrylate [CPM] | increases hydrolysis |  |  |  | 
4 | poly[(DEAEMA)-co-(BMA)]-b-[(PEGMA300)-c-(MaAhxFKFLAhxBIM)] [PolBIM] |  | release the desired (2980 Da) peptide product | more than 8 fold | 87 | 
5 | poly[(DEAEMA)-co-(BMA)]-b-[(PEGMA300)-c-(MaAhxFKFLAhxScrBIM)] [PolScrBIM] |  | release the desired (2980 Da) peptide product | no change | 15 | 

Source: patent US10709791B2, “Stabilized polymeric carriers for therapeutic agent delivery” (University of Washington, priority 2014, dated 2020)
